{"source": "patent US20100010096A1", "about": "“Methadone chiral isolate as an improved pharmaceutical” (priority 2006, published 2010)", "molecular_target": "T1, IKr channel (Homo sapiens, UniProt Q12809)", "T1 construct": "expressed in transfected cells; host or cells: Xenopus oocytes (cRNA injection)", "T1 sequence (Q12809 whole entry)": "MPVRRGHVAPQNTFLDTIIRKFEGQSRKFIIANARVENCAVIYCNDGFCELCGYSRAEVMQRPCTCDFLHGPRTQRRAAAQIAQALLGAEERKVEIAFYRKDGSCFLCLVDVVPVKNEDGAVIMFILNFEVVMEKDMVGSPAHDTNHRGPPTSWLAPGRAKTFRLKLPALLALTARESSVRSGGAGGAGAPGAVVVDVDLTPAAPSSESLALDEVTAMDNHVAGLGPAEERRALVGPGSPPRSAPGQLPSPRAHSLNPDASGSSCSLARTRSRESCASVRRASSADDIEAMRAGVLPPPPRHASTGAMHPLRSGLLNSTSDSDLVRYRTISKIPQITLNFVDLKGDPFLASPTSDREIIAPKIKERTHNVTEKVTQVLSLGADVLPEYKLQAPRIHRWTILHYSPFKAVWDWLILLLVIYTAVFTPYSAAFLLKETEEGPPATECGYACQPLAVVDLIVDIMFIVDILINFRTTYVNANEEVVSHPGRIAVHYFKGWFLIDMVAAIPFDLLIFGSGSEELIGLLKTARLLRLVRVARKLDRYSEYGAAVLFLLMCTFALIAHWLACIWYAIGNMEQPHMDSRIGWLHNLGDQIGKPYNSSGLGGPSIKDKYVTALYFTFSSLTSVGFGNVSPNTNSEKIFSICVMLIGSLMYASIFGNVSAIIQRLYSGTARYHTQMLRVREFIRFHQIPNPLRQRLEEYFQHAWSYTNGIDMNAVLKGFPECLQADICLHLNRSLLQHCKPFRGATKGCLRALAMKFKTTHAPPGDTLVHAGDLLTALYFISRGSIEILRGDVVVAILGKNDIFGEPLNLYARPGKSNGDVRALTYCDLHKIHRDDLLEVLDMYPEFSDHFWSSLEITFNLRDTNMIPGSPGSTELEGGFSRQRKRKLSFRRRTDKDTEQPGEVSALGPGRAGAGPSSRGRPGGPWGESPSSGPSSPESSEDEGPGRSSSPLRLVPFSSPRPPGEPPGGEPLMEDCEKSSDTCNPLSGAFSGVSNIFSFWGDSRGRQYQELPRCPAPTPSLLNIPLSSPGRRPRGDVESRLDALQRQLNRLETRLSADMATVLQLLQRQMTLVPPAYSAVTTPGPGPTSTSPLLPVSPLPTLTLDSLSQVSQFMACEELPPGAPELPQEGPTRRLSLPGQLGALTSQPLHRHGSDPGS", "experiment": "IKr inhibition in xenopus oocytes overexpressing the IKr channel, two electrode voltage clamp", "assay_type": "cell-based", "conditions": "methadone racemate 0.01 to 3 mM, FIG. 3"}
{"molecule": "CCC(=O)C(CC(C)N(C)C)(c1ccccc1)c1ccccc1", "note": "(racemic) [methadone]", "values": [{"measurement": "inhibition of the IKr current", "result": "dose related inhibition of the IKr current"}]}
